# Measurements published in US20100056519A1, “COMPOSITION AND METHOD FOR REDUCING PLATELET ACTIVATION AND FOR THE TREATMENT OF THROMBOTIC EVENTS” (priority 2008, published 2010).
# What was measured:
# Format in all cases: cell-based, human
# LAMP-1 (CD107a) = assay: TRAP-stimulated whole blood flow cytometry, LAMP-1; details: Mean ± SD
# Description: (§1) The methodology employed was conventional aggregation induced by 5 μM ADP, 1 μg/ml collagen, 10 μM TRAP, whole blood aggregation with 1 μg/ml collagen, Ultegra, and PFA-100 Analyzers, expression of 14 intact, and TRAP-stimulated major receptors by whole blood flow cytometry were utilized to assess platelet activity after preincubation with escalating concentrations of E5555 (20 ng/ml, 50 ng/ml, and 100 ng/ml). The experiments were performed in healthy volunteers, CAD patients treated with ASA, and CAD patients treated with ASA and clopidogrel combination (n=10, for each group).
# (§2) An Informed Consent was obtained from all volunteers. Drug users were excluded from data analysis. The study was approved by Quorum Institutional Review Board. All subjects underwent blood sampling after at least 30 minutes of rest and two or more hours of fasting. Blood (28 ml) was drawn between 8 and 10 a.m. in order to avoid any diurnal influence and sampled from an antecubital vein using a 21-gauge butterfly needle containing 3.2% sodium citrate (1:9 volume) after having discarded the first 1.5 ml of free running blood. Four Vacutainer tubes (7.0 ml) were collected for a total of 28 ml of whole blood-citrate mixture from each study participant. Chronologically, blood samples were delivered to the core laboratory facility within 45 minutes after drawing. Then all tubes of blood-citrate mixture were pooled. One portion of pooled blood (5 ml) was kept as an internal control and pretreated with the vehicle. The remaining blood (23 ml) was used for the in vitro exposure to E5555 at concentrations of 20 ng/ml, 50 ng/ml, and 100 ng/ml. […] The platelet aggregation studies, Rapid Analyzers measures, and flow cytometry preparations were initiated within no more than 110 minutes following the blood draw, incubation with the drug, and preparation of the samples.
# (§3) Formation of platelet-leukocyte aggregates was assessed by dual labeling with pan-platelet marker (CD151), and then with CD14, the macrophage receptor for endotoxin lipopolysaccharides (PharMingen, and Coulter, San Diego, Calif., USA). The tubes were then covered with aluminum foil and incubated at 37° C. for 40 minutes with gentle rotation. After incubation, samples were immediately analyzed on a Becton Dickinson FACScan flow cytometer. The instrument was set up to measure forward light scatter, and FITC fluorescence. All parameters were collected using four-decade logarithmic amplification. The data was retrieved in list mode files and then analyzed. P selectin was expressed as percent positive cells. Other antigens were expressed as log mean fluorescence intensity.
# For flow cytometry (TRAP-stimulated) all of the above flow cytometry experiments were identically repeated utilizing prestimulation with 10 μmol/L TRAP for 5 minutes at 37° C. To determine statistics, a Paired Sign Test was used to define significance of differences between vehicle and E5555-treated groups. The Mann-Whitney U test was used to analyze nonparametric data. Normally distributed data were expressed as mean±standard error (m±SE), and skewed data as median (range). All P-values were two sided. All analysis was performed using the SPSS v9.0 program (SPSS Inc., Chicago, Ill.).
# platelets = assay: Conventional platelet aggregation in PRP induced by 1 μg/ml collagen; details: for Platelet Aggregation (%), Collagen 1 μg/mL: Mean ± SD
# Description: as §1, §2
# Platelet counts were determined in each PRP sample with a Coulter Counter ZM (Coulter Co., Hialeah, Fla.). Platelet numbers were adjusted to 3.50×10^8/ml for aggregation using homologous platelet-poor plasma. Platelet aggregation was stimulated with 5 μM ADP, 1 μg/ml collagen, or 10 μM TRAP. All agonists were obtained from Chronolog Corporation (Havertown, Pa.) and Sigma (St. Louis, Miss.). Platelet aggregation experiments were performed using a Chrono-Log Lumi-Aggregometer (model 560-Ca). Aggregation curves were recorded for 4 minutes and analyzed according to internationally established standards using Aggrolink® software. Platelet aggregability was expressed as the percentage of light transmittance change from baseline using platelet-poor plasma as a reference.
# WEDE15 = assay: Unstimulated whole blood flow cytometry, WEDE15; details: Mean ± SD
# Description: as §1, §2, §3
# GPIb (CD42b) = assay: Unstimulated whole blood flow cytometry, GPIb; details: for GPIb (CD42b), Mean Fluorescence Intensity: unstimulated, Mean ± SD
# Description: as §1, §2, §3
# [1] = E5555 20 ng/ml, Patients (ASA + C)
# [2] = E5555 50 ng/ml, Patients (ASA + C)
# [3] = E5555 100 ng/ml, Patients (ASA + C)
# [4] = E5555 100 ng/ml, Patients (ASA)
smiles,measurement,setting,value
"Br.CCOc1cc2c(c(F)c1OCC)C(=N)N(CC(=O)c1cc(N3CCOCC3)c(OC)c(C(C)(C)C)c1)C2 [E5555, 1-(3-tert-butyl-4-methoxy-5-morpholinophenyl)-2-(5,6-diethoxy-7-fluoro-1-imino-1,3-dihydro-2H-isoindol-2-yl)ethanone hydrobromide]","LAMP-1 (CD107a), Mean Fluorescence Intensity",LAMP-1 (CD107a); [1],4.0 ± 0.8 MFI
same,"LAMP-1 (CD107a), Mean Fluorescence Intensity","LAMP-1 (CD107a); E5555 20 ng/ml, Patients (ASA)",4.1 ± 0.7 MFI
same,"LAMP-1 (CD107a), Mean Fluorescence Intensity","LAMP-1 (CD107a); E5555 20 ng/ml, Volunteers",5.9 ± 0.8 MFI
same,"LAMP-1 (CD107a), Mean Fluorescence Intensity",LAMP-1 (CD107a); [2],3.2 ± 1.0 MFI
same,"LAMP-1 (CD107a), Mean Fluorescence Intensity","LAMP-1 (CD107a); E5555 50 ng/ml, Patients (ASA)",4.0 ± 0.5 MFI
same,"LAMP-1 (CD107a), Mean Fluorescence Intensity","LAMP-1 (CD107a); E5555 50 ng/ml, Volunteers",4.9 ± 0.4 MFI
same,"LAMP-1 (CD107a), Mean Fluorescence Intensity",LAMP-1 (CD107a); [3],3.0 ± 1.1 MFI
same,"LAMP-1 (CD107a), Mean Fluorescence Intensity",LAMP-1 (CD107a); [4],3.1 ± 0.7 MFI
same,"LAMP-1 (CD107a), Mean Fluorescence Intensity","LAMP-1 (CD107a); E5555 100 ng/ml, Volunteers",4.7 ± 0.8 MFI
same,"inhibition of platelet activity, aggregation induced by collagen",platelets; ASA-treated patients with coronary artery disease,10-12%
same,"collagen-induced aggregation, effect in words",platelets; CAD patients treated with ASA+clopidogrel,moderate inhibition
same,"Platelet Aggregation (%), Collagen 1 μg/mL","platelets; E5555 20 ng/ml, CAD patients treated with ASA + clopidogrel",20.6 ± 3.2 %
same,"Platelet Aggregation (%), Collagen 1 μg/mL","platelets; E5555 20 ng/ml, CAD patients treated with ASA",23.9 ± 4.8 %
same,"Platelet Aggregation (%), Collagen 1 μg/mL","platelets; E5555 20 ng/ml, healthy volunteers",67.6 ± 6.2 %
same,"Platelet Aggregation (%), Collagen 1 μg/mL","platelets; E5555 50 ng/ml, CAD patients treated with ASA + clopidogrel",24.0 ± 3.3 %
same,"Platelet Aggregation (%), Collagen 1 μg/mL","platelets; E5555 50 ng/ml, CAD patients treated with ASA",26.1 ± 4.0 %
same,"Platelet Aggregation (%), Collagen 1 μg/mL","platelets; E5555 50 ng/ml, healthy volunteers",69.1 ± 6.5 %
same,"Platelet Aggregation (%), Collagen 1 μg/mL","platelets; E5555 100 ng/ml, CAD patients treated with ASA + clopidogrel",21.7 ± 4.2 %
same,"Platelet Aggregation (%), Collagen 1 μg/mL","platelets; E5555 100 ng/ml, CAD patients treated with ASA",25.7 ± 5.2 %
same,"Platelet Aggregation (%), Collagen 1 μg/mL","platelets; E5555 100 ng/ml, healthy volunteers",72.8 ± 7.5 %
same,inhibition of conventional platelet aggregation induced by collagen,"platelets; healthy volunteers, E5555 20, 50, and 100 ng/ml",15-20%
same,inhibition of collagen-induced platelet aggregation in plasma,platelets; overall summary of the study,10-15%
same,"WEDE15, Mean Fluorescence Intensity",WEDE15; [1],30 ± 8 MFI
same,"WEDE15, Mean Fluorescence Intensity","WEDE15; E5555 20 ng/ml, Patients (ASA)",40 ± 11 MFI
same,"WEDE15, Mean Fluorescence Intensity","WEDE15; E5555 20 ng/ml, Volunteers",40 ± 9 MFI
same,"WEDE15, Mean Fluorescence Intensity",WEDE15; [2],27 ± 6 MFI
same,"WEDE15, Mean Fluorescence Intensity","WEDE15; E5555 50 ng/ml, Patients (ASA)",38 ± 8 MFI
same,"WEDE15, Mean Fluorescence Intensity","WEDE15; E5555 50 ng/ml, Volunteers",41 ± 6 MFI
same,"WEDE15, Mean Fluorescence Intensity",WEDE15; [3],29 ± 12 MFI
same,"WEDE15, Mean Fluorescence Intensity",WEDE15; [4],35 ± 5 MFI
same,"WEDE15, Mean Fluorescence Intensity","WEDE15; E5555 100 ng/ml, Volunteers",40 ± 10 MFI
same,"GPIb expression, effect in words","GPIb (CD42b); overall summary, stimulation not stated",significant reduction
same,"GPIb (CD42b), Mean Fluorescence Intensity",GPIb (CD42b); [1],103 ± 7 MFI
same,"GPIb (CD42b), Mean Fluorescence Intensity","GPIb (CD42b); E5555 20 ng/ml, Patients (ASA)",106 ± 5 MFI
same,"GPIb (CD42b), Mean Fluorescence Intensity","GPIb (CD42b); E5555 20 ng/ml, Volunteers",162 ± 19 MFI
same,"GPIb (CD42b), Mean Fluorescence Intensity",GPIb (CD42b); [2],94 ± 12 MFI
same,"GPIb (CD42b), Mean Fluorescence Intensity","GPIb (CD42b); E5555 50 ng/ml, Patients (ASA)",109 ± 7 MFI
same,"GPIb (CD42b), Mean Fluorescence Intensity","GPIb (CD42b); E5555 50 ng/ml, Volunteers",145 ± 20 MFI
same,"GPIb (CD42b), Mean Fluorescence Intensity",GPIb (CD42b); [3],100 ± 15 MFI
same,"GPIb (CD42b), Mean Fluorescence Intensity",GPIb (CD42b); [4],111 ± 10 MFI
same,"GPIb (CD42b), Mean Fluorescence Intensity","GPIb (CD42b); E5555 100 ng/ml, Volunteers",157 ± 16 MFI
